Reference: PMC10933344, “A lncRNA Dleu2-encoded peptide relieves autoimmunity by facilitating Smad3-mediated Treg induction” (EMBO Reports, 2024)

Assays:
[1] = test system: Foxp3 CNS1-luciferase reporter / Smad3; test: Foxp3 CNS1-luciferase reporter assay in NIH/3T3 cells; type: cell-based, mouse; conditions: 20 μM
[2] = test system: Foxp3 CNS1-luciferase reporter / Smad3; test: as above; type: cell-based, mouse; conditions: 20 μM; remark: listed apart in the source
Protocol: Figure 4 Dleu2-17aa modulates TGF-β/Smad signaling to promote Foxp3 transcription. (A) qPCR analysis of TGF-β/Smad signaling downstream genes in CD4^+ T cells treated with Dleu2-17aa or scrPEP for 24 h and challenged with TGF-β to activate the signaling pathway (n = 3). (B) NIH/3T3 cells were transfected with a Foxp3 CNS1-luciferase reporter plasmid and a Smad3 expression vector. Subsequently, the cells were treated with either Dleu2-17aa or scrPEP. Luciferase activity fold induction was quantified (n = 3). (C) Foxp3 CNS1 region enrichment by Smad3 treated with or without Dleu2-17aa for 24 h in CD4^+ T cells was assessed by ChIP-qPCR (n = 3). (D) EMSA was performed in NIH/3T3 cell nuclear lysates using a 10 μM biotin-labeled Foxp3 probe and treated with Dleu2-17aa or scrPEP (3, 10, 30 μM). There were band shifts to a higher molecular weight and an increase in band intensity by Dleu2-17aa treatment. Data information: n indicates biological replicate. Error bars are mean ± SEM; **P < 0.01, and ***P < 0.001. Statistical analysis was by two-tailed Student’s t-test for (A–C). Source data are available online for this figure.
NIH/3T3 cells were seeded at 5 × 10^5 cells/well in 24-well plates and transfected with 0.2 μg/well of pGL3 Foxp3 CNS1-luciferase reporter and the internal control vector pRL-TK (Promega) at a ratio of 10:1 (reporter construct: control vector) using LipofectamineTM 2000 according to the manufacturer’s protocol; For specific groups, co-transfect with pcDNA3.1-Smad3, an empty vector served as the control. After 7 h, remove the transfection medium and replace it with fresh medium containing either 20 μM Dleu2-17aa or PBS. 24 h post-transfection, luciferase activity was measured using the Dual-Luciferase® Reporter Assay System (Promega) according to the manufacturer’s protocol.

ARGPARRMRGGRRRRLR [scrPEP, scrambled control peptide of Dleu2-17aa]
Relative luciferase activity ([1]; with Smad3 vector, replicate 4): 1.896 | Relative luciferase activity ([1]; with Smad3 vector, replicate 5): 1.262 | Relative luciferase activity ([1]; without Smad3 vector, replicate 4): 0.7583 | Relative luciferase activity ([1]; without Smad3 vector, replicate 5): 0.8478 | Relative luciferase activity ([2]; with Smad3 vector, replicate 1): 2.57 | Relative luciferase activity ([2]; with Smad3 vector, replicate 2): 2.653 | Relative luciferase activity ([2]; with Smad3 vector, replicate 3): 2.615 | Relative luciferase activity ([2]; without Smad3 vector, replicate 1): 0.9636 | Relative luciferase activity ([2]; without Smad3 vector, replicate 2): 0.91 | Relative luciferase activity ([2]; without Smad3 vector, replicate 3): 1.069
